The values that follow come from patent US8030344B2, “Inhibitors of histone deacetylase” (MethylGene Inc., priority 2007, dated 2011).

The subject of one assay is HMEC cells. Kind of assay: MTT assay on HMEC cells. The note with it: Homo sapiens; similar MTT assay on HMEC cells. It is filed as cell-based. The procedure: (§1) HCT116 cells (2000/well) are plated into 96-well tissue culture plates one day before compound treatment. Representative compounds at various concentrations were added to the cells. The cells are incubated for 72 hours at 37° C. in 5% CO2 incubator. MTT (3-[4,5-dimethylthiazol-2-yl]-2,5 diphenyl tetrazolium bromide, Sigma) is added at a final concentration of 0.5 mg/ml and incubated with the cells for 4 hours before one volume of solubilization buffer (50% N,N-dimethylformamide, 20% SDS, pH 4.7) is added onto the cultured cells. After overnight incubation, solubilized dye is quantified by calorimetric reading at 570 nM using a reference at 630 nM. OD values are converted to cell numbers according to a standard growth curve of the relevant cell line. The concentration which reduces cell numbers to 50% of that of solvent treated cells is determined as MTT IC50. A similar assay is performed on HMEC cells.

Another assay deals with HDAC-2 (Homo sapiens, UniProt Q92769). In words: Similar assay measuring HDAC-2 inhibitory activity. Format: biochemical. Here is the method: (§2) The following protocol is used to assay the compounds of the invention. In the assay, the buffer used is 25 mM HEPES, pH 8.0, 137 mM NaCl, 2.7 mM KCl, 1 mM MgCl2 and the substrate is Boc-Lys(Ac)-AMC in a 50 mM stock solution in DMSO. The enzyme stock solution is 4.08 μg/mL in buffer.
HDAC-2, sequence (Q92769 whole entry): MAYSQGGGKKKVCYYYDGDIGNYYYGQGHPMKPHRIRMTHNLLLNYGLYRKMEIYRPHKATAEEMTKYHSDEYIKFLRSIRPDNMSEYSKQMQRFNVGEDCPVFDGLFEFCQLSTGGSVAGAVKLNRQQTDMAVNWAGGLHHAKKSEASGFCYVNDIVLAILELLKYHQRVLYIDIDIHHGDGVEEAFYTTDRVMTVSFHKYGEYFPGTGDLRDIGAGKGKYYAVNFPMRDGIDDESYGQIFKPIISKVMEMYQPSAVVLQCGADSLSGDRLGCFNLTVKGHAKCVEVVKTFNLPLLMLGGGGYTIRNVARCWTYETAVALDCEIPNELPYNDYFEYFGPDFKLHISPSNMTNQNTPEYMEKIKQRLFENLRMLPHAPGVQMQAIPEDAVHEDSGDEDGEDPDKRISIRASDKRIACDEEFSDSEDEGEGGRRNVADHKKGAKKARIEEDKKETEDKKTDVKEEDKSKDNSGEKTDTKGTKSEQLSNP
(§3) The compounds are pre-incubated (2 μl in DMSO diluted to 13 μl in buffer for transfer to assay plate) with enzyme (20 μl of 4.08 μg/ml) for 10 minutes at room temperature (35 μl pre-incubation volume). The mixture is pre-incubated for 5 minutes at room temperature. The reaction is started by bringing the temperature to 37° C. and adding 15 μl substrate. Total reaction volume is 50 μl. The reaction is stopped after 20 minutes by addition of 50 μl developer, prepared as directed by Biomol (Fluor-de-Lys developer, Cat. # KI-105). A plate is incubated in the dark for 10 minutes at room temperature before reading (λEx=360 nm, λEm=470 nm, Cutoff filter at 435 nm). Similar assays are performed to measure HDAC-2 inhibitory activity

A further assay concerns the target HDAC-1 (Homo sapiens, UniProt Q13547). Kind of assay: Inhibition of histone deacetylase enzymatic (HDAC-1) activity, Boc-Lys(Ac)-AMC fluorescence assay. Format: biochemical. Here is the method: Inhibition of Histone Deacetylase Enzymatic (HDAC-1) Activity
as §2, §3

Another assay deals with HCT116 cells. In words: MTT assay on HCT116 cells. Format: cell-based. Conditions: Homo sapiens, HCT-116; 72 hours incubation; concentration reducing cell numbers to 50% of solvent treated cells. Here is the method:
as §1
(In general: Tetrazolium dyes change colour on reduction, which living cells bring about.)

HDAC-1, sequence (Q13547 whole entry): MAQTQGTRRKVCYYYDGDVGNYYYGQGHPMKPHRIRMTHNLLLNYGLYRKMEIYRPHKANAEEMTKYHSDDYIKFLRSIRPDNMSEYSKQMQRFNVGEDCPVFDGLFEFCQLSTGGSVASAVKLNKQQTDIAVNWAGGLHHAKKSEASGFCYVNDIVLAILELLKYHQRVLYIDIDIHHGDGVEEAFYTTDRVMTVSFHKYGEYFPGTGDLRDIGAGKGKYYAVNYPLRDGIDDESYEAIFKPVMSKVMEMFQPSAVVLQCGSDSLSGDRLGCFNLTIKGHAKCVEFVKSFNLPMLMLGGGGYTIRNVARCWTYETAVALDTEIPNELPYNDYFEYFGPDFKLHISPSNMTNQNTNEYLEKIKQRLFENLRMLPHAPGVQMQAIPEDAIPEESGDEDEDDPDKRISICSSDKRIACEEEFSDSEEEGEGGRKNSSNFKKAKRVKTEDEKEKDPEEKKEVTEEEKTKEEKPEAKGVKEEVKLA

Regarding `Nc1ccccc1NC(=O)c1ccc(N2CC[C@H](NC(=O)OCC3CC3)C2)cc1` [Compound 199, (S)-cyclopropylmethyl 1-(4-(2-aminophenylcarbamoyl)phenyl)-pyrrolidin-3-ylcarbamate], the concentration for half-maximal inhibition (IC50) with HMEC cells was no more than 50000 nM; on HDAC-2, no more than 500 nM; against HDAC-1 it was no more than 100 nM; in the assay with HCT116 cells it was no more than 500 nM.

For the compound `Nc1ccccc1NC(=O)c1ccc(N2CC[C@H](NC(=O)OC3CCOCC3)C2)cc1` [Compound 200, (S)-tetrahydro-2H-pyran-4-yl 1-(4-(2-aminophenylcarbamoyl)phenyl)-pyrrolidin-3-ylcarbamate], the IC50 was greater than 50000 nM in the assay with HMEC cells, no more than 500 nM at HDAC-2, no more than 500 nM at HDAC-1 and no more than 500 nM with HCT116 cells.

As a reminder, the IC50 is the midpoint of a concentration-inhibition curve. Low values mean inhibition by little substance, high ones a need for much substance.
